Test results taken from the NIST ThermoML archive (doi:10.1021/je700265d).
“And” between values parts separate entries of the source, which are not always exact repeats. Identical values can stand only once. ± gives the expanded uncertainty stated by the source.

Assay: mn = molality of the nth substance listed, in mol/kg
Details: Liquid, Vibrating tube method

[Na+].[OH-] [sodium hydroxide] + O
mass density
Details | 2000 kPa | 10000 kPa
323.15 K, m1 = 0.09892 | 993.08 ± 2 kg/m3 [middle of 4 runs] | –
323.15 K, m1 = 0.1004 | – | 996.538 ± 2 kg/m3 and 996.527 ± 2 kg/m3
323.15 K, m1 = 0.1011 | – | 996.561 ± 2 kg/m3 and 996.552 ± 2 kg/m3
323.15 K, m1 = 0.1999 | 997.265 ± 2 kg/m3 | –
323.15 K, m1 = 0.2008 | – | 1000.68 ± 2 kg/m3 and 1000.69 ± 2 kg/m3
323.15 K, m1 = 0.4993 | – | 1012.82 ± 2 kg/m3
323.15 K, m1 = 0.4998 | 1009.52 ± 2 kg/m3 and 1009.53 ± 2 kg/m3 | –
323.15 K, m1 = 1.002 | – | 1032.59 ± 2.1 kg/m3
323.15 K, m1 = 1.006 | 1029.58 ± 2.1 kg/m3 and 1029.59 ± 2.1 kg/m3 | –
323.15 K, m1 = 1.998 | – | 1069.82 ± 2.2 kg/m3
323.15 K, m1 = 2.006 | 1067.14 ± 2.2 kg/m3 | –
323.15 K, m1 = 2.994 | 1102.23 ± 2.2 kg/m3 and 1102.25 ± 2.2 kg/m3 | –
323.15 K, m1 = 2.999 | – | 1104.9 ± 2.3 kg/m3
323.15 K, m1 = 4 | 1135.56 ± 2.3 kg/m3 and 1135.59 ± 2.3 kg/m3 | 1137.82 ± 2.3 kg/m3
323.15 K, m1 = 4.927 | 1164.37 ± 2.4 kg/m3 and 1164.36 ± 2.4 kg/m3 | –
323.15 K, m1 = 5.002 | – | 1168.71 ± 2.4 kg/m3
323.15 K, m1 = 5.963 | 1194.98 ± 2.5 kg/m3 | –
323.15 K, m1 = 5.984 | – | 1197.21 ± 2.5 kg/m3
323.15 K, m1 = 6.887 | 1219.57 ± 2.5 kg/m3 | –
323.15 K, m1 = 6.998 | – | 1224.73 ± 2.6 kg/m3
323.15 K, m1 = 8 | 1248.12 ± 2.6 kg/m3 | –
323.15 K, m1 = 8.191 | – | 1254.93 ± 2.7 kg/m3
373.15 K, m1 = 0.1071 | – | 967.434 ± 1.9 kg/m3 and 967.432 ± 1.9 kg/m3
373.15 K, m1 = 0.2063 | – | 971.522 ± 2 kg/m3
373.15 K, m1 = 0.5006 | – | 983.362 ± 2 kg/m3
373.15 K, m1 = 1.007 | – | 1003.1 ± 2 kg/m3
373.15 K, m1 = 1.998 | – | 1039.6 ± 2.1 kg/m3
373.15 K, m1 = 3 | – | 1074.35 ± 2.2 kg/m3
373.15 K, m1 = 3.968 | – | 1105.88 ± 2.3 kg/m3
373.15 K, m1 = 4.987 | – | 1137.02 ± 2.3 kg/m3
373.15 K, m1 = 5.995 | – | 1165.76 ± 2.4 kg/m3
373.15 K, m1 = 7 | – | 1192.66 ± 2.5 kg/m3 and 1192.78 ± 2.5 kg/m3
373.15 K, m1 = 8.191 | – | 1222.53 ± 2.6 kg/m3
423.15 K, m1 = 0.102 | – | 926.887 ± 1.9 kg/m3 and 926.893 ± 1.9 kg/m3
423.15 K, m1 = 0.2019 | – | 931.217 ± 1.9 kg/m3
423.15 K, m1 = 0.4993 | – | 943.749 ± 1.9 kg/m3
423.15 K, m1 = 1.004 | – | 964.154 ± 1.9 kg/m3
423.15 K, m1 = 2.002 | – | 1002.15 ± 2 kg/m3
423.15 K, m1 = 3.005 | – | 1037.71 ± 2.1 kg/m3
423.15 K, m1 = 4.007 | – | 1070.87 ± 2.2 kg/m3
423.15 K, m1 = 5.013 | – | 1101.94 ± 2.3 kg/m3 and 1102 ± 2.3 kg/m3
423.15 K, m1 = 5.983 | – | 1129.99 ± 2.3 kg/m3
423.15 K, m1 = 6.994 | – | 1157.33 ± 2.4 kg/m3
423.15 K, m1 = 7.997 | – | 1182.78 ± 2.5 kg/m3
473.15 K, m1 = 0.1008 | – | 875.988 ± 1.8 kg/m3 and 876.005 ± 1.8 kg/m3 and 876.003 ± 1.8 kg/m3
473.15 K, m1 = 0.1998 | – | 880.725 ± 1.8 kg/m3
473.15 K, m1 = 0.498 | – | 894.456 ± 1.8 kg/m3 and 894.426 ± 1.8 kg/m3
473.15 K, m1 = 1 | – | 916.262 ± 1.9 kg/m3
473.15 K, m1 = 1.996 | – | 956.424 ± 1.9 kg/m3 and 956.451 ± 1.9 kg/m3
473.15 K, m1 = 3.001 | – | 993.727 ± 2 kg/m3
473.15 K, m1 = 3.979 | – | 1027.36 ± 2.1 kg/m3
473.15 K, m1 = 4.99 | – | 1059.7 ± 2.2 kg/m3
473.15 K, m1 = 5.981 | – | 1089.06 ± 2.2 kg/m3
473.15 K, m1 = 6.966 | – | 1116.25 ± 2.3 kg/m3 and 1116.27 ± 2.3 kg/m3
473.15 K, m1 = 7.982 | – | 1142.4 ± 2.4 kg/m3
523.15 K, m1 = 0.1 | – | 811.722 ± 1.7 kg/m3 and 811.711 ± 1.7 kg/m3
523.15 K, m1 = 0.2004 | – | 817.364 ± 1.7 kg/m3
523.15 K, m1 = 0.4995 | – | 833.124 ± 1.7 kg/m3 and 833.104 ± 1.7 kg/m3
523.15 K, m1 = 1.002 | – | 857.633 ± 1.8 kg/m3 and 857.68 ± 1.8 kg/m3
523.15 K, m1 = 2.005 | – | 902.001 ± 1.8 kg/m3
523.15 K, m1 = 3.005 | – | 942.171 ± 1.9 kg/m3
523.15 K, m1 = 3.999 | – | 977.951 ± 2 kg/m3
523.15 K, m1 = 5.003 | – | 1011.55 ± 2.1 kg/m3
523.15 K, m1 = 6.005 | – | 1042.56 ± 2.1 kg/m3 and 1042.64 ± 2.1 kg/m3
523.15 K, m1 = 7.002 | – | 1071.15 ± 2.2 kg/m3 and 1071.04 ± 2.2 kg/m3
523.15 K, m1 = 7.999 | – | 1097.71 ± 2.3 kg/m3 and 1097.55 ± 2.3 kg/m3
573.15 K, m1 = 0.1122 | – | 724.654 ± 1.5 kg/m3 and 724.632 ± 1.5 kg/m3
573.15 K, m1 = 0.2173 | – | 732.398 ± 1.5 kg/m3 and 732.406 ± 1.5 kg/m3
573.15 K, m1 = 0.5495 | – | 754.575 ± 1.6 kg/m3 and 754.588 ± 1.6 kg/m3
573.15 K, m1 = 1.105 | – | 787.201 ± 1.6 kg/m3 and 787.19 ± 1.6 kg/m3
573.15 K, m1 = 1.996 | – | 832.976 ± 1.7 kg/m3 and 833.161 ± 1.7 kg/m3
573.15 K, m1 = 3.004 | – | 878.767 ± 1.8 kg/m3
573.15 K, m1 = 3.998 | – | 918.89 ± 1.9 kg/m3
573.15 K, m1 = 4.999 | – | 955.585 ± 2 kg/m3
573.15 K, m1 = 6.004 | – | 989.12 ± 2 kg/m3
573.15 K, m1 = 6.999 | – | 1019.78 ± 2.1 kg/m3
573.15 K, m1 = 7.997 | – | 1047.99 ± 2.2 kg/m3
